Where a name gives a salt, the structure may show the parent alone.
Tested on: Male Zucker diabetic fatty (ZDF) rats
Assay: Test Example 1: elimination of blood lactate after intravenous sodium lactate load (blood lactate AUC 0 to 60 minutes)
Assay type: in vivo
Settings: sodium lactate 0.1 g/kg i.v., FIG. 1
Description: The animals of Group B and Group B+A were given free access for 1 week to Compound B mixed in powdered feed (FR-2 Powdered Laboratory Rodent Diet, Funabashi Farm Co., Ltd.) to a concentration of 0.001%. Animals of the control group and Group A were given free access to powdered feed for the same time period.
All animals were administered sodium lactate at 0.1 g/kg into the caudal vein one hour after oral administration. Blood samples were collected from the caudal vein immediately before and 5, 15, 30, 45 and 60 minutes after administration of sodium lactate, and blood lactate levels were measured using the Lactate Pro LT-1710 (Arkray, Inc.). The areas under the curve for blood lactate concentration (blood lactate AUC) were calculated from blood lactate levels from 0 to 60 minutes measured for each animal. A lower blood lactate AUC value indicates a more rapid elimination of lactate from the blood.

COc1ccc2nc(COc3ccc(CC4SC(=O)NC4=O)cc3)n(C)c2c1 (centres unmarked) [Compound B, 5-{4-[(6-methoxy-1-methyl-1H-benzimidazol-2-yl)methoxy]benzyl}thiazolidine-2,4-dione hydrochloride]
blood lactate AUC (Group B+A: Compound B 0.001% in feed for 1 week, then Compound A 300 mg/kg oral, relative to Group A (P<0.05, t-test)): decreased significantly | blood lactate AUC (Group B: Compound B 0.001% in powdered feed for 1 week, alone, compared with control group (P<0.05, t-test)): decreased significantly

Reference: patent US20090137626A1, “Pharmaceutical Composition Containing PPARgamma Agonist” (priority 2005, published 2009)
